# Results: PubChem BioAssay (NCI)
#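 Here, GI50 denotes the concentration required for 50% inhibition of growth. TGI is the concentration that stops growth completely.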
# What was measured:
# Experiment in all cases: NCI anticancer screen, dose series, 384-well format
# 786-0 renal = test system: 786-0 renal
# A498 renal = test system: A498 renal
# A549 NSCLC = test system: A549 NSCLC
# ACHN renal = test system: ACHN renal
# BT-549 breast = test system: BT-549 breast
# CAKI-1 renal = test system: CAKI-1 renal
# CCRF-CEM leukemia = test system: CCRF-CEM leukemia
# COLO 205 colon = test system: COLO 205 colon
# DU-145 prostate = test system: DU-145 prostate
# EKVX NSCLC = test system: EKVX NSCLC
# HCC-2998 colon = test system: HCC-2998 colon
# HCT-116 colon = test system: HCT-116 colon
# HCT-15 colon = test system: HCT-15 colon
# HL-60(TB) leukemia = test system: HL-60(TB) leukemia
# HOP-62 NSCLC = test system: HOP-62 NSCLC
# HOP-92 NSCLC = test system: HOP-92 NSCLC
# HS 578T breast = test system: HS 578T breast
# HT29 colon = test system: HT29 colon
# IGROV1 ovarian = test system: IGROV1 ovarian
# K-562 leukemia = test system: K-562 leukemia
# KM12 colon = test system: KM12 colon
# M14 melanoma = test system: M14 melanoma
# MALME-3M melanoma = test system: MALME-3M melanoma
# MCF7 breast = test system: MCF7 breast
# MDA-MB-231 breast = test system: MDA-MB-231 breast
# MDA-MB-435 melanoma = test system: MDA-MB-435 melanoma
# MDA-MB-468 breast = test system: MDA-MB-468 breast
# MOLT-4 leukemia = test system: MOLT-4 leukemia
# NCI-H226 lung = test system: NCI-H226 lung
# NCI-H23 lung = test system: NCI-H23 lung
# NCI-H322M lung = test system: NCI-H322M lung
# NCI-H460 NSCLC = test system: NCI-H460 NSCLC
# NCI-H522 lung = test system: NCI-H522 lung
# NCI/ADR-RES ovarian = test system: NCI/ADR-RES ovarian
# OVCAR-3 ovarian = test system: OVCAR-3 ovarian
# OVCAR-4 ovarian = test system: OVCAR-4 ovarian
# OVCAR-5 ovarian = test system: OVCAR-5 ovarian
# OVCAR-8 ovarian = test system: OVCAR-8 ovarian
# PC-3 prostate = test system: PC-3 prostate
# RPMI-8226 leukemia = test system: RPMI-8226 leukemia
# RXF 393 renal = test system: RXF 393 renal
# SF-268 CNS = test system: SF-268 CNS
# SF-295 CNS = test system: SF-295 CNS
# SF-539 CNS = test system: SF-539 CNS
# SK-MEL-28 melanoma = test system: SK-MEL-28 melanoma
# SK-MEL-5 melanoma = test system: SK-MEL-5 melanoma
# SK-OV-3 ovarian = test system: SK-OV-3 ovarian
# SN12C renal = test system: SN12C renal
# SNB-19 CNS = test system: SNB-19 CNS
# SNB-75 CNS = test system: SNB-75 CNS
# SR leukemia = test system: SR leukemia
# SW-620 colon = test system: SW-620 colon
# T-47D breast = test system: T-47D breast
# TK-10 renal = test system: TK-10 renal
# U251 glioblastoma = test system: U251 glioblastoma
# UACC-257 melanoma = test system: UACC-257 melanoma
# UO-31 renal = test system: UO-31 renal
smiles,measurement,setting,value
CS(=O)c1ccc(-c2nc(-c3ccc(F)cc3)c(-c3ccncc3)[nH]2)cc1 (centres undefined),GI50,786-0 renal,17.8 µM
same,TGI,786-0 renal,36.5 µM
same,GI50,A498 renal,16.7 µM
same,TGI,A498 renal,55.2 µM
same,GI50,A549 NSCLC,38.9 µM
same,TGI,A549 NSCLC,> 100 µM
same,GI50,ACHN renal,19 µM
same,TGI,ACHN renal,65.1 µM
same,GI50,BT-549 breast,41.7 µM
same,TGI,BT-549 breast,> 100 µM
same,GI50,CAKI-1 renal,22.2 µM
same,TGI,CAKI-1 renal,88.4 µM
same,GI50,CCRF-CEM leukemia,17.7 µM
same,TGI,CCRF-CEM leukemia,42.8 µM
same,GI50,COLO 205 colon,11.8 µM
same,TGI,COLO 205 colon,24.5 µM
same,GI50,DU-145 prostate,30.4 µM
same,TGI,DU-145 prostate,93.2 µM
same,GI50,EKVX NSCLC,32.6 µM
same,TGI,EKVX NSCLC,> 100 µM
same,GI50,HCC-2998 colon,23.2 µM
same,TGI,HCC-2998 colon,38.7 µM
same,GI50,HCT-116 colon,23.3 µM
same,TGI,HCT-116 colon,50.9 µM
same,GI50,HCT-15 colon,18.4 µM
same,TGI,HCT-15 colon,37.1 µM
same,GI50,HL-60(TB) leukemia,16.4 µM
same,TGI,HL-60(TB) leukemia,30.3 µM
same,GI50,HOP-62 NSCLC,23 µM
same,TGI,HOP-62 NSCLC,50.1 µM
same,GI50,HOP-92 NSCLC,34.8 µM
same,TGI,HOP-92 NSCLC,> 100 µM
same,GI50,HS 578T breast,20.7 µM
same,TGI,HS 578T breast,39 µM
same,GI50,HT29 colon,11.1 µM
same,TGI,HT29 colon,24 µM
same,GI50,IGROV1 ovarian,13.9 µM
same,TGI,IGROV1 ovarian,28.9 µM
same,GI50,K-562 leukemia,27.8 µM
same,TGI,K-562 leukemia,> 100 µM
same,GI50,KM12 colon,27.4 µM
same,TGI,KM12 colon,62.3 µM
same,GI50,M14 melanoma,6.96 µM
same,TGI,M14 melanoma,29.4 µM
same,GI50,MALME-3M melanoma,11.9 µM
same,TGI,MALME-3M melanoma,28.1 µM
same,GI50,MCF7 breast,26.8 µM
same,TGI,MCF7 breast,90.7 µM
same,GI50,MDA-MB-231 breast,35.6 µM
same,TGI,MDA-MB-231 breast,> 100 µM
same,GI50,MDA-MB-435 melanoma,33.2 µM
same,TGI,MDA-MB-435 melanoma,> 100 µM
same,GI50,MDA-MB-468 breast,10.5 µM
same,TGI,MDA-MB-468 breast,29.2 µM
same,GI50,MOLT-4 leukemia,25.1 µM
same,TGI,MOLT-4 leukemia,62.2 µM
same,GI50,NCI-H226 lung,19.9 µM
same,TGI,NCI-H226 lung,34.4 µM
same,GI50,NCI-H23 lung,26.7 µM
same,TGI,NCI-H23 lung,52.6 µM
same,GI50,NCI-H322M lung,37.5 µM
same,TGI,NCI-H322M lung,96.2 µM
same,GI50,NCI-H460 NSCLC,27.8 µM
same,TGI,NCI-H460 NSCLC,64.1 µM
same,GI50,NCI-H522 lung,14.8 µM
same,TGI,NCI-H522 lung,35.2 µM
same,GI50,NCI/ADR-RES ovarian,98.1 µM
same,TGI,NCI/ADR-RES ovarian,> 100 µM
same,GI50,OVCAR-3 ovarian,29.3 µM
same,TGI,OVCAR-3 ovarian,68.8 µM
same,GI50,OVCAR-4 ovarian,38.2 µM
same,TGI,OVCAR-4 ovarian,93.8 µM
same,GI50,OVCAR-5 ovarian,40.4 µM
same,TGI,OVCAR-5 ovarian,> 100 µM
same,GI50,OVCAR-8 ovarian,24 µM
same,TGI,OVCAR-8 ovarian,90.4 µM
same,GI50,PC-3 prostate,40.3 µM
same,TGI,PC-3 prostate,> 100 µM
same,GI50,RPMI-8226 leukemia,23.6 µM
same,TGI,RPMI-8226 leukemia,40.3 µM
same,GI50,RXF 393 renal,17.8 µM
same,TGI,RXF 393 renal,33.5 µM
same,GI50,SF-268 CNS,43.4 µM
same,TGI,SF-268 CNS,> 100 µM
same,GI50,SF-295 CNS,20.1 µM
same,TGI,SF-295 CNS,35.1 µM
same,GI50,SF-539 CNS,29.5 µM
same,TGI,SF-539 CNS,71.6 µM
same,GI50,SK-MEL-28 melanoma,12.1 µM
same,TGI,SK-MEL-28 melanoma,25.6 µM
same,GI50,SK-MEL-5 melanoma,14.7 µM
same,TGI,SK-MEL-5 melanoma,28.4 µM
same,GI50,SK-OV-3 ovarian,22.7 µM
same,TGI,SK-OV-3 ovarian,58.2 µM
same,GI50,SN12C renal,48.5 µM
same,TGI,SN12C renal,> 100 µM
same,GI50,SNB-19 CNS,56.8 µM
same,TGI,SNB-19 CNS,> 100 µM
same,GI50,SNB-75 CNS,44.2 µM
same,TGI,SNB-75 CNS,> 100 µM
same,GI50,SR leukemia,13.1 µM
same,TGI,SR leukemia,26.4 µM
same,GI50,SW-620 colon,31.5 µM
same,TGI,SW-620 colon,49.2 µM
same,GI50,T-47D breast,27.4 µM
same,TGI,T-47D breast,83.9 µM
same,GI50,TK-10 renal,16.8 µM
same,TGI,TK-10 renal,37.4 µM
same,GI50,U251 glioblastoma,27.8 µM
same,TGI,U251 glioblastoma,62.4 µM
same,GI50,UACC-257 melanoma,15.3 µM
same,TGI,UACC-257 melanoma,30 µM
same,GI50,UO-31 renal,21.4 µM
same,TGI,UO-31 renal,69.9 µM
